Experimental data: paper PMC5796035 (2017)
Blank lines part the entries; values can stand above or below the molecule they belong to.

Legend:
[1] = system: R12.51 (DNA, aptamer) TGTACCGTCTGAGCGATTCGTACAGTTTCTGGAGGACTGGGCGGGGTGACGGTTATGAGCCAGTCAGTGTTAAGGAGTGC; assay: competitive elution from immobilised fipronil, fluorescence; settings: 100 mM NaCl, 2 mM MgCl2, 20 mM Tris-HCl
[2] = system: R12.51 (DNA, aptamer) TGTACCGTCTGAGCGATTCGTACAGTTTCTGGAGGACTGGGCGGGGTGACGGTTATGAGCCAGTCAGTGTTAAGGAGTGC; assay: plate-based fluorescence saturation binding; settings: 100 mM NaCl, 2 mM MgCl2; immobilised compound (maleic anhydride plate); 20 mM Tris-HCl; mean of four assays (55, 35, 38, 64 nM)

binding ([1]; 1 µM, fipronil/compound ratio 1.52 (5.05 at 200 nM in river water/buffer)): weak
Compound: CCC(=O)Nc1ccc(Cl)c(Cl)c1

binding ([1]; 1 µM, fipronil/compound ratio 1.23 (4.80 at 200 nM in river water/buffer)): weak
Compound: CCNc1nc(Cl)nc(NC(C)C)n1

binding ([1]; 1 µM, displaces MRE from immobilised fipronil, fipronil/compound ratio 1.10): yes
Compound: CCS(=O)c1c(C#N)nn(-c2c(Cl)cc(C(F)(F)F)cc2Cl)c1N (centres unmarked)

binding ([1]; 1 µM, displaces MRE from immobilised fipronil, fipronil/compound ratio 1.16): yes
Compound: N#Cc1nn(-c2c(Cl)cc(C(F)(F)F)cc2Cl)c(N)c1C(F)(F)F

binding ([1]; 1 µM, displaces MRE from immobilised fipronil, fipronil/compound ratio 1.07): yes
Compound: N#Cc1nn(-c2c(Cl)cc(C(F)(F)F)cc2Cl)c(N)c1S(=O)(=O)C(F)(F)F

Kd [2]: 48 ± 8 nM | binding ([1]; free compound 1 µM, normalized fluorescence 2.413 (no target 0.247)): yes
Compound: N#Cc1nn(-c2c(Cl)cc(C(F)(F)F)cc2Cl)c(N)c1S(=O)C(F)(F)F (centres unmarked)

binding ([1]; 1 µM, displaces MRE from immobilised fipronil, fipronil/compound ratio 0.89): yes
Compound: N#Cc1nn(-c2c(Cl)cc(C(F)(F)F)cc2Cl)c(N)c1SC(F)(F)F
